Measurements: ChEMBL document CHEMBL1140199, “Synthesis and antimicrobial activity of 2-alkenylchroman-4-ones, 2-alkenylthiochroman-4-ones and 2-alkenylquinol-4-ones” (2008)
Converted amounts (≈) assume the structure as drawn. The source made the active and inactive calls. The rule behind the calls is not given here.

What was measured:
Format in all cases: functional
Candida maltosa = assay: Antimicrobial activity against Candida maltosa
Bacillus subtilis = assay: Antimicrobial activity against Bacillus subtilis ATCC 6051
Escherichia coli = assay: Antimicrobial activity against Escherichia coli ATCC 11229
Staphylococcus aureus = assay: Antimicrobial activity against Staphylococcus aureus ATCC 6538; details: for MIC: Staphylococcus aureus, ATCC 6538

Compound | Activity (Candida maltosa) | Activity (Bacillus subtilis) | inhibition zone (IZ) (Escherichia coli) | Activity (Staphylococcus aureus) | Activity (Escherichia coli) | other results
C/C=C/C1CC(=O)c2cc(Br)ccc2O1 (stereo not given) | inactive | inactive | 9 mm | inactive |  | 
C=CC1CC(=O)c2cc(F)ccc2N1C(=O)OC (stereo not given) | inactive | inactive |  | inactive | inactive | 
C/C=C/C1CC(=O)c2cc(Cl)ccc2O1 (stereo not given) | inactive | inactive | 10 mm | inactive |  | 
C=CC1CC(=O)c2ccccc2S1 (stereo not given) |  | inactive |  | inactive | inactive | inhibition zone (IZ) (Candida maltosa): 6 mm
NYSTATIN |  |  |  |  |  | inhibition zone (IZ) (Candida maltosa): 28 mm
C=C(C)C1CC(=O)c2ccccc2O1 (stereo not given) | inactive | inactive | 10 mm | inactive |  | 
C=CC1CC(=O)c2cc(Cl)ccc2O1 (stereo not given) |  |  | 17 mm |  |  | inhibition zone (IZ) (Candida maltosa): 40 mm; inhibition zone (IZ) (Bacillus subtilis): 29 mm; MIC (Bacillus subtilis; Bacillus subtilis, ATCC 6051): 4.17 µg/mL (≈ 20 µM); MIC (Escherichia coli; Escherichia coli, ATCC 11229): 4.17 µg/mL (≈ 20 µM); inhibition zone (IZ) (Staphylococcus aureus): 40 mm; MIC (Staphylococcus aureus): 7.3 µg/mL (≈ 35 µM)
C/C=C(\C)C1CC(=O)c2cc(Br)ccc2O1 (stereo not given) | inactive | inactive |  | inactive | inactive | 
C=C(C)C1CC(=O)c2cc(Cl)ccc2S1 (stereo not given) | inactive | inactive |  | inactive | inactive | 
C=CC1CC(=O)c2cc(Br)ccc2N1C(=O)OC (stereo not given) | inactive | inactive |  | inactive | inactive | 
CC1(C)S[C@@H]2[C@H](NC(=O)[C@H](N)c3ccccc3)C(=O)N2[C@H]1C(=O)O [AMPICILLIN] |  |  | 19 mm |  |  | inhibition zone (IZ) (Bacillus subtilis): 25 mm; inhibition zone (IZ) (Staphylococcus aureus): 27 mm
C=CC1CC(=O)c2c(Cl)cc(Cl)cc2N1C(=O)OC (stereo not given) | inactive | inactive |  | inactive | inactive | 
C=C(C)C1CC(=O)c2ccccc2S1 (stereo not given) | inactive | inactive |  | inactive | inactive | 
C=C(C)C1CC(=O)c2cc(Cl)ccc2N1C(=O)OC (stereo not given) | inactive | inactive |  | inactive | inactive | 
C=CC1CC(=O)c2ccccc2O1 (stereo not given) | inactive | inactive |  | inactive | inactive | 
C=CC1CC(=O)c2cc(Cl)ccc2S1 (stereo not given) |  | inactive |  | inactive | inactive | inhibition zone (IZ) (Candida maltosa): 6 mm
C=CC1CC(=O)c2cc(Cl)ccc2N1C(=O)OC (stereo not given) | inactive | inactive |  | inactive | inactive | 
C=C(C)C1CC(=O)c2cc(Cl)ccc2O1 (stereo not given) | inactive | inactive | 9 mm |  |  | inhibition zone (IZ) (Staphylococcus aureus): 17 mm
C/C=C(\C)C1CC(=O)c2cc(Cl)ccc2O1 (stereo not given) | inactive | inactive |  | inactive | inactive | 
C=CC1CC(=O)c2cc(Br)ccc2O1 (stereo not given) |  |  |  |  |  | MIC (Staphylococcus aureus): 5.62 µg/mL (≈ 22.2 µM)
C=C(C)C1CC(=O)c2cc(Br)ccc2O1 (stereo not given) | inactive | inactive | 8 mm |  |  | inhibition zone (IZ) (Staphylococcus aureus): 16 mm
